From patent US7994185B2, “Benzene sulfonamide thiazole and oxazole compounds” (Glaxo Smith Kline LLC, priority 2008, dated 2011) come the findings set out here.

For test [1], the system named is Human melanoma cancer cells (SK-MEL-28). The test is described as follows: Cell growth inhibition assay (CellTiter-Glo), SK-MEL-28. The class given is cell-based.
In test [2] the test system is Human colon tumor cells (Colo205). The test is described as follows: Cell growth inhibition assay (CellTiter-Glo), Colo205. The class given is cell-based. In outline:
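Luminescent ATP read-out (CellTiter-Glo) served as a proxy for cell number; percent growth inhibition was calculated against DMSO vehicle wells. Cells were treated for 3 days at 37 °C with serially diluted compound, 0.2% DMSO final.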
(In general: In ATP-based viability assays light output follows the ATP content of the culture.)

Test [3] concerns the target T1, BRAFV600E full-length (amino acids 2-766) (Homo sapiens, UniProt P15056, V600E).
T1 construct: His6-tagged BRAFV600E full-length (amino acids 2-766); His6; made in house; host or cells: baculovirus expression system (insect cells)
Description: B-Raf Accelerated MEK ATPase assay (BRAMA). The class given is biochemical. The conditions noted are these: categorized. The procedure, abridged:
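Coupled-enzyme readout: ADP generated by MEK-mediated ATP hydrolysis, uncoupled from ERK phosphorylation, is linked to NADH oxidation through pyruvate kinase and lactate dehydrogenase.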

Another test deals with pERK (pERK/tERK). The test is described as follows: Pharmacodynamic effect, pERK/tERK in A375P F11s xenograft tumors. The class given is in vivo, mice. The conditions noted are these: Mus musculus, read-out: inhibition of pERK (pERK/tERK). The procedure:
Animals were housed in pathogen free conditions and handled with aseptic technique. […] Detached cells were collected, centrifuged (1500 rpm, 5 min, 4° C.) and rinsed to remove the trypsin solution. Cells were resuspended in PBS without magnesium or calcium and counted. Cells were spun as previously to remove PBS and a single cell suspension was created either in 50% Matrigel: 50% PBS (v:v) or 100% PBS so that a 100 μL subcutaneous injection would deliver the required number of cells per mouse. The A375P F11s melanoma line was injected with Matrigel at 4 million cells per mouse. Tumors were established (˜150-300 mm^3) for all cell lines within 2-4 weeks post-injection.
At 2 h following oral administration of compound mice were euthanized using carbon dioxide. Tumors were carefully excised, homogenized using Medimachine (BD Bioscience) with 1 ml of lysis buffer (25 mM Tris-HCl (pH 7.5), 2 mM EDTA (pH 8.0), 2 mM EGTA (pH 8.0), 1% Triton X-100, 0.1% SDS, 50 mM Na—B—PO4, 2 mM NaVO4, 4 mM Na-Pyr-PO4, 2× phosphatase inhibitor cocktail. Crude homogenate was transferred to a 12 ml polypropylene tube containing 1.5 ml of lysis buffer and kept on ice. Following homogenization of all samples, 1 ml of homogenate was transferred to an eppendorf tube and centrifuged at 14,000 rpm for 15 min at 4° C. Five hundred microliter of clarified lysate was transferred to a new tube, flash frozen and processed for quantitation of pERK and tERK using western blot or Elisa (MSD) assays. […] BioRad dye was added to BSA dilutions and diluted test lysates. […] Comparison to the standard curve provides a relative measurement of protein concentration. […] The gels were transferred onto nitro-cellulose membranes using the iBlot transfer apparatus, which were then blocked and incubated with different primary antibodies overnight at 4° C. Western blots dually probed against pERK and tERK were scanned using LI-COR Odyssey® reader. A ratio of the immunofluorescent density obtained for pERK/tERK is calculated and expressed as a ratio (in percentage) to control untreated samples. For determination of pERK/tERK ratio by ELISA, MesoScale Discovery (MSD) (cat# K15107) plate were used according to manufacturer's instructions. In brief, MSD plates were block with 150 μl/well of blocking buffer for 1 hr before being washed 4 times with 200 μl of washing buffer. Thirty microliter (30 μl) of serially diluted samples was added to wells and plates were incubated overnight at 4° C. under slow agitation (˜500 rpm). Plates were washed 4 times in 200 μl 1× Tris wash buffer and 25 μl detection antibody solution was added to all wells and incubated at room temperature for 1 hr (˜500 rpm). Plates were washed 4 times in 200 μl wash buffer and 150 μl of read buffer was added to all wells. Plates were read on MSD.SI6000. In this assay vehicle and compound treated samples were tested at 4 different dilutions to allow linear range coverage of the assay. From pERK and tERK signal, background (BSA signal) was subtracted and ratio of pERK/tERK determined and normalized to untreated vehicle samples, arbitrarily set at 100%.

Another test relates to A375P F11s. Description: 3-day proliferation assays, selection of A375P F11s clone. The class given is cell-based, human. To be noted: A375P F11s subclone of A375P. As for the experimental part:
Activity of select exemplified compounds was tested in vivo against A375 PF11s (melanoma cell line encoding a B-Raf V600E mutation) xenograft mouse model. The A375P F11s cell line, encoding a mutation for BRAF^V600E, was subcloned from the A375P human melanoma cell line (obtained from ATCC, Cat # CRL-1619) by limiting dilution and selected based on high (90%) sensitivity to the BRAF inhibitor, SB-590885 (commercially available), in 3-day proliferation assays. The selected clone (A375P F11s) was isolated and mutation in B-Raf (T1799A) encoding the V600E amino acid change was reconfirmed.

Where [4] appears, read: SK-MEL-28, 72 h, Table 3a, 3 days incubation, read-out: Activity in SK-MEL-28 Tumor Cells.
[5] abbreviates: SK-MEL-28, Table 3b, later runs, average for the one or more runs, categorized, read-out: IC50 for SK-MEL-28.
Setting [6] is: COLO 205, 72 h, Table 2a, 3 days incubation, read-out: Activity in Colo205 Tumor Cells.
Where [7] appears, read: COLO 205, Table 2b, later runs, average for the one or more runs, categorized, read-out: IC50 for Colo205.
The mark [8] stands for this setting: B-Raf Activity, Table 1a, highest pIC50 for the one or more runs.
Setting [9] is: B-Raf pIC50, Table 1b, later runs, average pIC50 for the one or more runs.
[10] abbreviates: A375P F11s xenograft tumors, single oral dose of 100 mg/kg, 2 h after administration.
[11] abbreviates: Table 1b, later runs, average pIC50 for the one or more runs, read-out: B-Raf pIC50 (converted).

Molecules are shown by their SMILES. Where a name gives a salt, the structure may show the parent alone. Read-outs that look alike come from different tables or passages of the source. Bounds are passed on as bounds.

T1 sequence (P15056 2-766 V600E): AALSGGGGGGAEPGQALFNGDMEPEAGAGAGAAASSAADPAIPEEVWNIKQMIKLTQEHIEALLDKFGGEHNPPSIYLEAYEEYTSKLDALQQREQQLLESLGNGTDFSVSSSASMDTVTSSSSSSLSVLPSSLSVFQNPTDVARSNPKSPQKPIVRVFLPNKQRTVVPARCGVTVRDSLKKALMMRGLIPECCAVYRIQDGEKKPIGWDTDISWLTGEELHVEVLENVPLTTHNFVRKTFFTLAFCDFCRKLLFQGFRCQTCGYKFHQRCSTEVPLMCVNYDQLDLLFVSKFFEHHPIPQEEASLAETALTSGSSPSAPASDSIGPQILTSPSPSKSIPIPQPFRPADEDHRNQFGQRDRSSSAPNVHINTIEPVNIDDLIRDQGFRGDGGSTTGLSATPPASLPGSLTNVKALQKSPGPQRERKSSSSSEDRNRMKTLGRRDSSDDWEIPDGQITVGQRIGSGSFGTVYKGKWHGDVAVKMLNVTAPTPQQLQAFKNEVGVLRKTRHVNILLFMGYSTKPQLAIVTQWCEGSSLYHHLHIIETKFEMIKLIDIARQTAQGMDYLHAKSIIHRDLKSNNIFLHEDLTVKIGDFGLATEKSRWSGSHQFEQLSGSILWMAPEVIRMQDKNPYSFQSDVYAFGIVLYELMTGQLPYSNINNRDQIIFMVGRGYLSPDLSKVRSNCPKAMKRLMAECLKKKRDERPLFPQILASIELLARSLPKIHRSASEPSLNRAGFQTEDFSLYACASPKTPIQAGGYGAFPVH

As to `Nc1nccc(-c2sc(N3CCOCC3)nc2-c2cccc(NS(=O)(=O)c3ccco3)c2Cl)n1` [Example 24, N-{3-[5-(2-Amino-4-pyrimidinyl)-2-(4-morpholinyl)-1,3-thiazol-4-yl]-2-chlorophenyl}-2-furansulfonamide], the IC50 in test [1] (setting [4]) was below 100 nM; in test [1] (setting [5]) it was 100 to 1000 nM; in test [2] (setting [6]), below 100 nM; in test [2] (setting [7]) it was 100 to 1000 nM; in test [3] (setting [8]) it was below 100 nM; in test [3] (setting [9]), at most 3.16 nM. In the test on pERK (pERK/tERK) (setting [10]), the inhibition at 100 mg/kg is at least 30%.

As for `Cc1nccc(-c2sc(C3CCOCC3)nc2-c2cccc(NS(=O)(=O)c3c(F)cccc3F)c2Cl)n1` [Example 25, N-{2-Chloro-3-[5-(2-methyl-4-pyrimidinyl)-2-(tetrahydro-2H-pyran-4-yl)-1,3-thiazol-4-yl]phenyl}-2,6-difluorobenzenesulfonamide trifluoroacetate], the IC50 is below 100 nM in test [1] (setting [4]); below 100 nM in test [1] (setting [5]); 100 to 1000 nM in test [2] (setting [6]); 100 to 1000 nM in test [2] (setting [7]); below 100 nM in test [3] (setting [8]); 3.16 to 31.6 nM in test [3] (setting [11]). Moreover, the inhibition at 100 mg/kg in the test with pERK (pERK/tERK) (setting [10]) is at least 30%.

As to `O=S(=O)(Nc1cccc(-c2nc(C3CCOCC3)sc2-c2ccncn2)c1Cl)c1c(F)cccc1F` [Example 26, N-{2-Chloro-3-[5-(4-pyrimidinyl)-2-(tetrahydro-2H-pyran-4-yl)-1,3-thiazol-4-yl]phenyl}-2,6-difluorobenzenesulfonamide], the IC50 in test [1] (setting [4]) was below 100 nM; in test [1] (setting [5]), below 100 nM; in test [2] (setting [6]) it was below 100 nM; in test [2] (setting [7]), below 100 nM; in test [3] (setting [8]), below 100 nM; in test [3] (setting [9]), at most 3.16 nM. Also, the inhibition at 100 mg/kg in the test on pERK (pERK/tERK) (setting [10]) is at least 30%.

With `CC(C)(C)c1nc(-c2cccc(NS(=O)(=O)c3c(F)cccc3F)c2F)c(-c2ccnc(N)n2)s1` [Example 58, N-{3-[5-(2-amino-4-pyrimidinyl)-2-(1,1-dimethylethyl)-1,3-thiazol-4-yl]-2-fluorophenyl}-2,6-difluorobenzenesulfonamide], the IC50 in test [1] (setting [4]) and in test [2] (setting [6]) was below 100 nM each time. For the same compound, in the test with pERK (pERK/tERK) (A375P, po, 2 h), the inhibition at 100 mg/kg was at least 30%.

With `Nc1nccc(-c2sc(N3CCOCC3)nc2-c2cccc(NS(=O)(=O)c3c(F)cccc3F)c2F)n1` [Example 59, N-{3-[5-(2-Amino-4-pyrimidinyl)-2-(4-morpholinyl)-1,3-thiazol-4-yl]-2-fluorophenyl}-2,6-difluorobenzenesulfonamide], the IC50 in test [1] (setting [4]) was 100 to 1000 nM; in test [1] (setting [5]), 100 to 1000 nM; in test [2] (setting [6]), 100 to 1000 nM; in test [2] (setting [7]), 100 to 1000 nM; in test [3] (setting [8]) it was below 100 nM; in test [3] (setting [11]) it was 3.16 to 31.6 nM. For the same compound, the inhibition at 100 mg/kg in the test with pERK (pERK/tERK) (setting [10]) is at least 30%.

In the case of `Nc1nccc(-c2sc(C3CCOCC3)nc2-c2cccc(NS(=O)(=O)c3c(F)cccc3F)c2F)n1` [Example 64, N-{3-[5-(2-amino-4-pyrimidinyl)-2-(tetrahydro-2H-pyran-4-yl)-1,3-thiazol-4-yl]-2-fluorophenyl}-2,6-difluorobenzenesulfonamide], the IC50 in test [1] (setting [4]) was below 100 nM; in test [1] (setting [5]) it was below 100 nM; in test [2] (setting [6]), below 100 nM; in test [2] (setting [7]) it was below 100 nM; in test [3] (setting [8]), below 100 nM; in test [3] (setting [9]), at most 3.16 nM. For the same compound, the inhibition at 100 mg/kg with pERK (pERK/tERK) (setting [10]) is at least 30%.

In the case of `Cc1nccc(-c2sc(C(C)(C)C)nc2-c2cccc(NS(=O)(=O)c3cc(F)ccc3F)c2F)n1` [Example 65, N-{3-[2-(1,1-dimethylethyl)-5-(2-methyl-4-pyrimidinyl)-1,3-thiazol-4-yl]-2-fluorophenyl}-2,5-difluorobenzenesulfonamide], the IC50 in test [1] (setting [4]) is below 100 nM; in test [1] (setting [5]), below 100 nM; in test [2] (setting [6]), below 100 nM; in test [2] (setting [7]), below 100 nM; in test [3] (setting [8]), below 100 nM; in test [3] (setting [9]) it was at most 3.16 nM. Also, in the test with pERK (pERK/tERK) (setting [10]), the inhibition at 100 mg/kg is at least 30%.

Regarding `CC(C)(C)c1nc(-c2cccc(NS(=O)(=O)c3cc(F)ccc3F)c2F)c(-c2ccncn2)s1` [Example 66, N-{3-[2-(1,1-Dimethylethyl)-5-(4-pyrimidinyl)-1,3-thiazol-4-yl]-2-fluorophenyl}-2,5-difluorobenzenesulfonamide], the IC50 was below 100 nM in test [1] (setting [4]); below 100 nM in test [1] (setting [5]); below 100 nM in test [2] (setting [6]); below 100 nM in test [2] (setting [7]); below 100 nM in test [3] (setting [8]); at most 3.16 nM in test [3] (setting [9]). Besides, the inhibition at 100 mg/kg in the test on pERK (pERK/tERK) (setting [10]) was at least 30%.

Take `Nc1nccc(-c2sc(N3CCOCC3)nc2-c2cccc(NS(=O)(=O)c3cc(F)ccc3F)c2Cl)n1` [Example 156]: the IC50 in test [1] (setting [4]) is below 100 nM; in test [1] (setting [5]) it was below 100 nM; in test [2] (setting [6]), below 100 nM; in test [2] (setting [7]), below 100 nM; in test [3] (setting [8]) it was below 100 nM; in test [3] (setting [9]), at most 3.16 nM. The inhibition at 100 mg/kg in the test on pERK (pERK/tERK) (setting [10]) was at least 30%.

Turning to `CN(C)CCOc1ccc(-c2nc(-c3ccncc3)c(-c3ccc4c(c3)CC/C4=N\O)[nH]2)cc1` [SB-590885], in the test with A375P F11s, the “sensitivity to the BRAF inhibitor in 3-day proliferation assays” value is recorded as 90%.
